Experimental data: patent US11717508B2, “Compounds, compositions, and methods for inhibiting bacterial growth” (priority 2016, dated 2023)
“And” between values parts separate entries of the source, which are not always exact repeats. Equal entries are not always repeated. Where two headings read alike, the source gives them in different places.

System: DosRST regulon
Type: cell-based

SMILES: C[C@@H]1CC[C@H]2[C@@H](C)C(=O)O[C@@H]3O[C@]4(C)CC[C@@H]1[C@]32OO4 [HC101A, artemisinin, reference compound]
- downregulation of tgs1 gene (transcriptional profiling) (CDC1551, 40 μM, 6 days): ~100 fold
- Counts per million (CPM) WT_HC101A (gene MT0055): 35.17 CPM and 29.03 CPM
- log2 Fold change (gene MT0055): −1.288
- Counts per million (CPM) WT_HC101A (gene MT0062 (Rv0056 rp11)): 104.6 CPM and 99.67 CPM
- log2 Fold change (gene MT0062 (Rv0056 rp11)): −1.059
- log2 Fold change (gene MT0086 Rv0079): −1.314
- Counts per million (CPM) WT_HC101A (gene MT0105 (Rv0096 PPE)): 8.529 CPM and 7.796 CPM
- log2 Fold change (gene MT0105 (Rv0096 PPE)): −1.583
- Counts per million (CPM) WT_HC101A (gene MT0106 (Rv0097)): 24.38 CPM and 21.53 CPM
- log2 Fold change (gene MT0106 (Rv0097)): −1.646
- Counts per million (CPM) WT_HC101A (gene MT0107 (Rv0098)): 11.7 CPM and 9.891 CPM
- log2 Fold change (gene MT0107 (Rv0098)): −1.652
- Counts per million (CPM) WT_HC101A (gene MT0108 (Rv0099 fadD10)): 39.35 CPM and 32.64 CPM
- log2 Fold change (gene MT0108 (Rv0099 fadD10)): −1.057
- Counts per million (CPM) WT_HC101A (gene MT0117): 157.5 CPM and 202.6 CPM
- log2 Fold change (gene MT0117): −1.008
- Counts per million (CPM) WT_HC101A (gene MT0122 (Rv0113 gmhA)): 36.48 CPM and 25.54 CPM
- log2 Fold change (gene MT0122 (Rv0113 gmhA)): −1.031
- Counts per million (CPM) WT_HC101A (gene MT0124): 5.295 CPM and 3.898 CPM
- log2 Fold change (gene MT0124): −1.954
- Counts per million (CPM) WT_HC101A (gene MT0175 (Rv0166 fadD5)): 67.07 CPM and 45.73 CPM
- log2 Fold change (gene MT0175 (Rv0166 fadD5)): −1.959
- Counts per million (CPM) WT_HC101A (gene MT0176): 118.5 CPM and 96.7 CPM
- log2 Fold change (gene MT0176): −1.284
- Counts per million (CPM) WT_HC101A (gene MT0178 (Rv0169 mcel)): 178.5 CPM and 133.6 CPM
- log2 Fold change (gene MT0178 (Rv0169 mcel)): −1.664
- log2 Fold change (gene MT0179 (Rv0170)): −1.755
- log2 Fold change (gene MT0180 (Rv0171)): −1.645
- log2 Fold change (gene MT0181 (Rv0172)): −1.502
- log2 Fold change (gene MT0182 (Rv0173 IprK)): −1.638
- log2 Fold change (gene MT0183 (Rv0174)): 1.264
- log2 Fold change (gene MT0241 (Rv0231 fadE4)): −1.266
- log2 Fold change (gene MT0244 (Rv0233 nrdB)): −1.533
- log2 Fold change (gene MT0329 (Rv0315)): −1.589
- log2 Fold change (gene MT0417): −1.313
- log2 Fold change (gene MT0423 (Rv0410c pknG)): −1.948
- log2 Fold change (gene MT0424 (Rv0411c glnH)): −1.654
- log2 Fold change (gene MT0425 (Rv0412c)): −1.504
- log2 Fold change (gene MT0429 (Rv0416)): −1.414
- log2 Fold change (gene MT0434): −1.079
- log2 Fold change (gene MT0524): −1.085
- log2 Fold change (gene MT0595 Rv0569): −2.701
- log2 Fold change (gene MT0596 Rv0570 nrdZ): −4.516
- log2 Fold change (gene MT0597 Rv0571c): −2.001
- log2 Fold change (gene MT0599 Rv0572c): −3.648
- log2 Fold change (gene MT0600): −4.304
- log2 Fold change (gene MT0601 Rv0573c): −2.988
- log2 Fold change (gene MT0602 Rv0574c): −3.56
- log2 Fold change (gene MT0637 (Rv0608)): −1.073
- log2 Fold change (gene MT0735 (Rv0708 rplP)): −1.134
- log2 Fold change (gene MT0736 (Rv0709 rpmC)): −1.065
- log2 Fold change (gene MT0741): −1.181
- log2 Fold change (gene MT0741.1 (Rv0715 rplX)): −1.23
- log2 Fold change (gene MT0742.1 (Rv0717 rpsN)): −1.057
- log2 Fold change (gene MT0747 (Rv0722 rpmD)): −1.393
- log2 Fold change (gene MT0846 Rv0824c desA1): −1.662
- log2 Fold change (gene MT0877 (Rv0854)): −1.066
- log2 Fold change (gene MT0898): −3.3
- log2 Fold change (gene MT0908 (Rv0885)): −1.929
- log2 Fold change (gene MT0909 (Rv0886 fprB)): −1.498
- log2 Fold change (gene MT0911 (Rv0888)): −2.361
- log2 Fold change (gene MT1002 (Rv0974c accD2)): −1.787
- log2 Fold change (gene MT1019 (Rv0990c)): −1.168
- log2 Fold change (gene MT1020): −1.37
- log2 Fold change (gene MT1056 (Rv1037c)): −1.377
- log2 Fold change (gene MT1095 Rv1065): −1.172
- Counts per million (CPM) WT_HC101A (gene MT1823 (Rv1773c)): 189.6 CPM and 111.2 CPM
- log2 Fold change (gene MT1823 (Rv1773c)): −1.79
- Counts per million (CPM) WT_HC101A (gene MT1840 (Rv1791 PE)): 169.4 CPM and 147.4 CPM
- log2 Fold change (gene MT1840 (Rv1791 PE)): −1.118
- Counts per million (CPM) WT_HC101A (gene MT1850 (Rv1812c)): 69.36 CPM and 114.1 CPM
- log2 Fold change (gene MT1850 (Rv1812c)): −1.173
- log2 Fold change (gene MT1851 Rv1813c): −4.29
- Counts per million (CPM) WT_HC101A (gene MT1882 (Rv1834)): 28.5 CPM and 25.48 CPM
- log2 Fold change (gene MT1882 (Rv1834)): −1.56
- Counts per million (CPM) WT_HC101A (gene MT1932): 219.8 CPM and 285.7 CPM
- log2 Fold change (gene MT1932): −1.182
- Counts per million (CPM) WT_HC101A (gene MT1942): 74.52 CPM and 69.7 CPM
- log2 Fold change (gene MT1942): −1.048
- Counts per million (CPM) WT_HC101A (gene MT1943): 65.44 CPM and 61.15 CPM
- log2 Fold change (gene MT1943): −1.048
- Counts per million (CPM) WT_HC101A (gene MT1955 (Rv1904)): 88.58 CPM and 104.4 CPM
- log2 Fold change (gene MT1955 (Rv1904)): −1.006
- Counts per million (CPM) WT_HC101A (gene MT1959 (Rv1918c PPE)): 62.82 CPM and 65.51 CPM
- log2 Fold change (gene MT1959 (Rv1918c PPE)): −1.121
- Counts per million (CPM) WT_HC101A (gene MT1986 (Rv1936)): 47.53 CPM and 27.87 CPM
- log2 Fold change (gene MT1986 (Rv1936)): −2.373
- Counts per million (CPM) WT_HC101A (gene MT1987 (Rv1937)): 66.35 CPM and 34.04 CPM
- log2 Fold change (gene MT1987 (Rv1937)): −2.295
- Counts per million (CPM) WT_HC101A (gene MT1988 (Rv1938 cphB)): 24.12 CPM and 13.5 CPM
- log2 Fold change (gene MT1988 (Rv1938 cphB)): −2.344
- Counts per million (CPM) WT_HC101A (gene MT1989 (Rv1939)): 13.56 CPM and 7.389 CPM
- log2 Fold change (gene MT1989 (Rv1939)): −2.045
- Counts per million (CPM) WT_HC101A (gene MT2007): 22.23 CPM and 14.6 CPM
- log2 Fold change (gene MT2007): −1.243
- Counts per million (CPM) WT_HC101A (gene MT2016 (Rv1964)): 104.5 CPM and 57.78 CPM
- log2 Fold change (gene MT2016 (Rv1964)): −1.754
- Counts per million (CPM) WT_HC101A (gene MT2017): 43.41 CPM and 25.54 CPM
- log2 Fold change (gene MT2017): −2.544
- Counts per million (CPM) WT_HC101A (gene MT2018 (Rv1966 mce3)): 50.34 CPM and 26.88 CPM
- log2 Fold change (gene MT2018 (Rv1966 mce3)): −2.558
- Counts per million (CPM) WT_HC101A (gene MT2019 (Rv1967)): 52.89 CPM and 27.87 CPM
- log2 Fold change (gene MT2019 (Rv1967)): −2.496
- log2 Fold change (gene MT2020 Rv1968): −2.621
- Counts per million (CPM) WT_HC101A (gene MT2021 (Rv1969)): 23.73 CPM and 17.45 CPM
- log2 Fold change (gene MT2021 (Rv1969)): −1.799
- Counts per million (CPM) WT_HC101A (gene MT2022 (Rv1970 lprM)): 37.39 CPM and 24.44 CPM
- log2 Fold change (gene MT2022 (Rv1970 lprM)): −2.347
- Counts per million (CPM) WT_HC101A (gene MT2023 (Rv1971)): 53.54 CPM and 31.19 CPM
- log2 Fold change (gene MT2023 (Rv1971)): −2.293
- Counts per million (CPM) WT_HC101A (gene MT2024 (Rv1972)): 16.15 CPM and 10.41 CPM
- log2 Fold change (gene MT2024 (Rv1972)): −1.124
- Counts per million (CPM) WT_HC101A (gene MT2042.1): 19.87 CPM and 29.96 CPM
- log2 Fold change (gene MT2042.1): −1.522
- Counts per million (CPM) WT_HC101A (gene MT2050 (Rv2004c)): 234 CPM and 227.9 CPM
- log2 Fold change (gene MT2050 (Rv2004c)): −3.602
- Counts per million (CPM) WT_HC101A (gene MT2051 (Rv2005c)): 149.3 CPM and 179.3 CPM
- log2 Fold change (gene MT2051 (Rv2005c)): −3.859
- Counts per million (CPM) WT_HC101A (gene MT2052 (Rv1996)): 177.9 CPM and 195.4 CPM
- log2 Fold change (gene MT2052 (Rv1996)): −7.087
- Counts per million (CPM) WT_HC101A (gene MT2052 (Rv2006 otsB)): 122.8 CPM and 137.5 CPM
- log2 Fold change (gene MT2052 (Rv2006 otsB)): −2.478
- Counts per million (CPM) WT_HC101A (gene MT2053 (Rv1997 ctpF)): 70.21 CPM and 92.04 CPM
- log2 Fold change (gene MT2053 (Rv1997 ctpF)): 4.931
- log2 Fold change (gene MT2053 (Rv2007c fdxA)): −3.149
- Counts per million (CPM) WT_HC101A (gene MT2059 (Rv2003c)): 101.8 CPM and 119.9 CPM
- log2 Fold change (gene MT2059 (Rv2003c)): −2.726
- Counts per million (CPM) WT_HC101A (gene MT2079 (Rv2023c)): 11.24 CPM and 12.86 CPM
- log2 Fold change (gene MT2079 (Rv2023c)): −1.5
- Counts per million (CPM) WT_HC101A (gene MT2080): 28.31 CPM and 33.92 CPM
- log2 Fold change (gene MT2080): −1.521
- Counts per million (CPM) WT_HC101A (gene MT2086 (Rv2027c)): 56.35 CPM and 58.94 CPM
- log2 Fold change (gene MT2086 (Rv2027c)): −2.22
- log2 Fold change (gene MT2087 Rv2028c): −3.553
- Counts per million (CPM) WT_HC101A (gene MT2088): 91.91 CPM and 170.4 CPM
- log2 Fold change (gene MT2088): −4.873
- log2 Fold change (gene MT2089 Rv2030c): −4.16
- log2 Fold change (gene MT2090): −5.249
- log2 Fold change (gene MT2091 Rv2032): −4.893
- Counts per million (CPM) WT_HC101A (gene MT2156 (Rv2107 PE)): 20.07 CPM and 13.38 CPM
- log2 Fold change (gene MT2156 (Rv2107 PE)): −1.59
- Counts per million (CPM) WT_HC101A (gene MT2278 (Rv2220 glnAl)): 436.2 CPM and 385.9 CPM
- log2 Fold change (gene MT2278 (Rv2220 glnAl)): −1.475
- Counts per million (CPM) WT_HC101A (gene MT2304 (Rv2244 acpM)): 626.7 CPM and 987.4 CPM
- log2 Fold change (gene MT2304 (Rv2244 acpM)): −2.163
- log2 Fold change (gene MT2305 (Rv2245 kasA)): −1.728
- Counts per million (CPM) WT_HC101A (gene MT2306): 581.8 CPM and 834.9 CPM
- log2 Fold change (gene MT2306): −1.559
- log2 Fold change (gene MT2307 (Rv2247 accD6)): −1.121
- Counts per million (CPM) WT_HC101A (gene MT2329 (Rv2267c)): 24.25 CPM and 27 CPM
- log2 Fold change (gene MT2329 (Rv2267c)): −1.234
